From US20230108906A1, “SUBSTITUTED BICYCLIC AND TRICYCLIC UREAS AND AMIDES, ANALOGUES THEREOF, AND METHODS USING SAME” (Arbutus Biopharma Corporation, priority 2019, published 2023) come the findings set out here.

Some results are limits rather than exact numbers.

The test system of one assay is HBV rcDNA in HepDE19 cells. As to the kind of experiment: HepDE19 assay with bDNA quantitation of HBV rcDNA. Format: cell-based, hepatitis B virus (HBV). Particulars: Hepatitis B virus, HepDE19, 168 h, inhibition of rcDNA formation in HepDE19 cells (HepG2 derived), Tet-free medium, 7 day incubation, Quantigene 2.0 bDNA readout, top concentration 25 μM; read-out: DE-19bDNA EC50. Put shortly: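 HepDE19 cells (HepG2-derived, Tet-regulated HBV) switched to Tet-free medium, then treated 7 days at 37 °C with compound, 8-point titration from 25 μM, 0.5% DMSO. rcDNA quantified by bDNA with HBV probes; EC50/EC90 via 4-parameter fit. Viability (CC50) by CellTiter-Glo ATP on 5,000 cells/well after 4 days.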
Take `CN(C(=O)Nc1ccc(F)c(C#N)c1)C1CS(=O)(=O)Cc2[nH]c(=O)c3cc(F)ccc3c21` (racemic) [Compound 215, 3-(3-Cyano-4-fluorophenyl)-1-(8-fluoro-3,3-dioxido-6-oxo-1,4,5,6-tetrahydro-2H-thiopyrano[3,4-c]isoquinolin-1-yl)-1-methylurea]: the EC50 was no less than 25000 nM.
Same read-out and setting: to `O=C(Nc1ccc(F)c(Cl)c1)N(CCCO)C1CCCc2[nH]c(=O)cc(C(F)(F)F)c21` (stereo not shown) [Compound 3, 3-(3-Chloro-4-fluorophenyl)-1-(3-hydroxypropyl)-1-(2-oxo-4-(trifluoromethyl)-1,2,5,6,7,8-hexahydroquinolin-5-yl)urea] belongs 1700 nM.
As to `CN(C(=O)Nc1ccc(F)c(C#N)c1)[C@@H]1COCc2[nH]c(=O)c3cc(F)ccc3c21` (single isomer, unassigned) [Compound 64], the EC50 came to 20 nM.
Same read-out and setting: the result for `CN(C(=O)NC1(C(F)(F)F)CC1)[C@@H]1COCc2[nH]c(=O)c3cc(F)c(F)cc3c21` [Compound 145, (S)-1-(8,9-Difluoro-6-oxo-1,4,5,6-tetrahydro-2H-pyrano[3,4-c]isoquinolin-1-yl)-1-methyl-3-(1-(trifluoromethyl)cyclopropyl)urea] reads 9000 nM; that for `CN(C(=O)Nc1ccc(F)c(C(F)F)c1)[C@@H]1COCc2nc(OCCO)c3cc(F)c(F)cc3c21` [Compound 256, (S)-1-(8,9-Difluoro-6-(2-hydroxyethoxy)-1,4-dihydro-2H-pyrano[3,4-c]isoquinolin-1-yl)-3-(3-(difluoromethyl)-4-fluorophenyl)-1-methylurea], 19 nM.
Same read-out and setting: the result for `CC(C)CN(C(=O)Nc1ccc(F)c(Cl)c1)C1CCCc2[nH]c(=O)c3cc(F)ccc3c21` (stereo not shown) [Compound 10, 3-(3-Chloro-4-fluorophenyl)-1-(8-fluoro-6-oxo-1,2,3,4,5,6-hexahydrophenanthridin-1-yl)-1-isobutylurea] reads 60 nM; that for `CN1Cc2[nH]c(=O)c3cc(F)c(F)cc3c2C(N(C)C(=O)Nc2ccc(F)c(C#N)c2)C1` (stereo not shown) [Compound 173, 3-(3-Cyano-4-fluorophenyl)-1-(8,9-difluoro-3-methyl-6-oxo-1,2,3,4,5,6-hexahydrobenzo[c][1,7]naphthyridin-1-yl)-1-methylurea], 13000 nM; that for `CN(C(=O)Nc1ccc(F)c(Cl)c1)C1CCCc2[nH]c(=O)c3c(F)c(F)ccc3c21` (stereo not shown) [Compound 28, 3-(3-Chloro-4-fluorophenyl)-1-(7,8-difluoro-6-oxo-1,2,3,4,5,6-hexahydrophenanthridin-1-yl)-1-methylurea], 440 nM.
The same measure, in the same setting: the result for `CN(C(=O)Nc1ccc(F)c(Cl)c1)C1CCCCc2[nH]c(=O)c3ccccc3c21` (stereo not shown) [Compound 21, 3-(3-Chloro-4-fluorophenyl)-1-methyl-1-(5-oxo-6,7,8,9,10,11-hexahydro-5H-cyclohepta[c]isoquinolin-11-yl)urea] reads 150 nM; that for `O=C(Nc1ccc(F)c(Cl)c1)N(CCCO)C1CCCc2[nH]c(=O)c3cc(F)ccc3c21` (stereo not shown) [Compound 11, 3-(3-Chloro-4-fluorophenyl)-1-(8-fluoro-6-oxo-1,2,3,4,5,6-hexahydrophenanthridin-1-yl)-1-(3-hydroxypropyl)urea], 60 nM; that for `CN(C(=O)Nc1ccc(F)c(Cl)c1)[C@@H]1COCc2nc(OCCO)c3cc(F)c(F)cc3c21` [Compound 255, (S)-3-(3-Chloro-4-fluorophenyl)-1-(8,9-difluoro-6-(2-hydroxyethoxy)-1,4-dihydro-2H-pyrano[3,4-c]isoquinolin-1-yl)-1-methylurea], 49 nM.
Turning to `CN(C(=O)Nc1ccc(F)c(Cl)c1)C1COC(=O)c2[nH]c(=O)c3cc(F)c(F)cc3c21` (racemic) [Compound 152, 3-(3-Chloro-4-Fluorophenyl)-1-(8,9-difluoro-4,6-dioxo-1,4,5,6-tetrahydro-2H-pyrano[3,4-c]isoquinolin-1-yl)-1-methylurea], the EC50 is 20 nM.
Same read-out and setting: to `CN(C(=O)N1Cc2ccc(Cl)cc2C1)[C@@H]1COCc2[nH]c(=O)c3cc(F)c(F)cc3c21` [Compound 219, (S)-5-Chloro-N-(8,9-difluoro-6-oxo-1,4,5,6-tetrahydro-2H-pyrano[3,4-c]isoquinolin-1-yl)-N-methylisoindoline-2-carboxamide] belongs 5900 nM; to `CN(C(=O)Nc1ccc(F)c(Cl)c1)C1CCCc2[nH]c(=O)c3c(c21)CCOC3` (single isomer, unassigned) [Compound 60, 3-(3-Chloro-4-fluorophenyl)-1-methyl-1-(5-oxo-1,4,5,6,7,8,9,10-octahydro-2H-pyrano[3,4-c]quinolin-10-yl)urea], 3200 nM.

Staying with this assay, now noted: inhibition of rcDNA formation in HepDE19 cells (HepG2 derived), Tet-free medium, 7 day incubation, Quantigene 2.0 bDNA readout, top concentration 25 μM; read-out: DE-19bDNA EC50.
On to `CN(C(=O)Nc1ccc(F)c(F)c1)C1COCc2[nH]c(=O)c3cc(F)c(F)cc3c21` (single isomer, unassigned) [Compound 118, 1-(8,9-Difluoro-6-oxo-1,4,5,6-tetrahydro-2H-pyrano[3,4-c]isoquinolin-1-yl)-3-(3,4-difluorophenyl)-1-methylurea], for which the EC50 came out at 10 nM.
The same measure, in the same setting: the result for `CN(C(=O)Nc1ccc(F)c(Cl)c1)C1COCc2[nH]c(=O)c3ccccc3c21` (single isomer, unassigned) [Compound 36, 3-(3-Chloro-4-fluorophenyl)-1-methyl-1-(6-oxo-1,4,5,6-tetrahydro-2H-pyrano[3,4-c]isoquinolin-1-yl)urea] reads 4600 nM; that for `CN(C(=O)Nc1ccc(F)c(C#N)c1)C1CNCc2[nH]c(=O)c3cc(F)ccc3c21` (single isomer, unassigned) [Compound 161, 3-(3-Cyano-4-fluorophenyl)-1-(8-fluoro-6-oxo-1,2,3,4,5,6-hexahydrobenzo[c][1,7]naphthyridin-1-yl)-1-methylurea], 17000 nM; that for `CN(C(=O)Nc1ccc(F)c(C#N)c1)C1CNCc2[nH]c(=O)c3cc(F)ccc3c21` (single isomer, unassigned) [Compound 162, 3-(3-Cyano-4-fluorophenyl)-1-(8-fluoro-6-oxo-1,2,3,4,5,6-hexahydrobenzo[c][1,7]naphthyridin-1-yl)-1-methylurea], 170 nM.
Take `CN(C(=O)Nc1ccc(F)c(C#N)c1)C1C[S+]([O-])Cc2[nH]c(=O)c3cc(F)ccc3c21` (single isomer, unassigned) [Compound 200, 3-(3-Cyano-4-fluorophenyl)-1-(8-fluoro-3-oxido-6-oxo-1,4,5,6-tetrahydro-2H-thiopyrano[3,4-c]isoquinolin-1-yl)-1-methylurea]: the EC50 is no less than 25000 nM.
In the case of `CN(C(=O)Nc1ccc(F)c(C#N)c1)C1CNCc2[nH]c(=O)c3cc(F)c(F)cc3c21` (single isomer, unassigned) [Compound 175, 3-(3-Cyano-4-fluorophenyl)-1-(8,9-difluoro-6-oxo-1,2,3,4,5,6-hexahydrobenzo[c][1,7]naphthyridin-1-yl)-1-methylurea], the EC50 came to 1500 nM.
Same read-out and setting: the result for `CNc1nc2c(c3cc(F)c(F)cc13)C(N(C)C(=O)Nc1ccc(F)c(C(F)F)c1)COC2` (single isomer, unassigned) [Compound 235, 1-(8,9-Difluoro-6-(methylamino)-1,4-dihydro-2H-pyrano[3,4-c]isoquinolin-1-yl)-3-(3-(difluoromethyl)-4-fluorophenyl)-1-methylurea] reads 1810 nM.
On to `CN(C(=O)Nc1ccc(F)c(C#N)c1)C1C[S+]([O-])Cc2[nH]c(=O)c3cc(F)c(F)cc3c21` (single isomer, unassigned) [Compound 212, 3-(3-Cyano-4-fluorophenyl)-1-(8,9-difluoro-3-oxido-6-oxo-1,4,5,6-tetrahydro-2H-thiopyrano[3,4-c]isoquinolin-1-yl)-1-methylurea], for which the EC50 is no less than 25000 nM.
Still for that read-out and setting: the result for `CN(C(=O)Nc1ccc(F)c(F)c1)C1COCc2[nH]c(=O)c3c(c21)COCC3` (single isomer, unassigned) [Compound 85, 3-(3,4-Difluorophenyl)-1-methyl-1-(5-oxo-1,3,4,5,6,7,9,10-octahydrodipyrano[3,4-b:3′,4′-d]pyridin-10-yl)urea] reads 4500 nM; that for `Cc1cc(NC(=O)N(CC(C)C)C2COCc3[nH]c(=O)c4cc(F)ccc4c32)ccc1F` (single isomer, unassigned) [Compound 132, 3-(4-Fluoro-3-methylphenyl)-1-(8-fluoro-6-oxo-1,4,5,6-tetrahydro-2H-pyrano[3,4-c]isoquinolin-1-yl)-1-isobutylurea], 150 nM; that for `CN(C(=O)Nc1ccc(F)c(F)c1)C1CCCc2[nH]c(=O)c3c(c21)COCC3` (single isomer, unassigned) [Compound 81, 3-(3,4-Difluorophenyl)-1-methyl-1-(5-oxo-3,4,5,6,7,8,9,10-octahydro-1H-pyrano[4,3-c]quinolin-10-yl)urea], no less than 25000 nM.
Still for that read-out and setting: the result for `CN(C(=O)Nc1ccc(F)c(C#N)c1)C1C[S+]([O-])Cc2[nH]c(=O)c3cc(F)ccc3c21` (single isomer, unassigned) [Compound 202, 3-(3-Cyano-4-fluorophenyl)-1-(8-fluoro-3-oxido-6-oxo-1,4,5,6-tetrahydro-2H-thiopyrano[3,4-c]isoquinolin-1-yl)-1-methylurea] reads no less than 25000 nM; that for `CN(C(=O)Nc1ccc(F)c(F)c1)C1CNCc2[nH]c(=O)c3cc(F)c(F)cc3c21` (single isomer, unassigned) [Compound 192, 1-(8,9-Difluoro-6-oxo-1,2,3,4,5,6-hexahydrobenzo[c][1,7]naphthyridin-1-yl)-3-(3,4-difluorophenyl)-1-methylurea], 40 nM; that for `CN(C(=O)Nc1ccc(F)c(Cl)c1)C1C[S+]([O-])Cc2[nH]c(=O)c3cc(F)c(F)cc3c21` (single isomer, unassigned) [Compound 209, 3-(3-Chloro-4-fluorophenyl)-1-(8,9-difluoro-3-oxido-6-oxo-1,4,5,6-tetrahydro-2H-thiopyrano[3,4-c]isoquinolin-1-yl)-1-methylurea], 700 nM.

By EC50 is commonly meant the concentration that produces a half-maximal response.
